Values of other authors as cited in patent publication US8912167B2, “Heparin-based compositions and methods for the inhibition of metastasis” (priority 2011, dated 2014).

Settings: under physiological conditions

For “tetra-[5-(L)-lysyl-amino-O-methylsalicylamide]”, the binding to heparin is listed as “bind heparin tightly and essentially irreversibly”.
